Laboratory results as given in the supplement of paper PMC10307832.

Columns and labels:
Assay in all cases: relative viability (nuclei count vs DMSO), 5 days (fraction); higher = more cells survive
IPA-3 + Pictilisib = compound: C1=CC=C2C(=C1)C=CC(=C2SSC3=C(C=CC4=CC=CC=C43)O)O [IPA-3] + CS(=O)(=O)N1CCN(Cc2cc3nc(-c4cccc5[nH]ncc45)nc(N4CCOCC4)c3s2)CC1 [Pictilisib] (partner 1 µM)
Outline: (§1)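 A single step with final 0.05% Triton X-100, 1% formaldehyde and 1 ug/ml Hoechst fixed the cells and stained nuclei 5 days after treatment. Lung cancer cell lines in 1536-well plates had been treated by pin tool the day after seeding with one drug alone or a fixed anchor-drug dose plus five library-drug doses (not always all listed) in √10 steps, and nuclei were counted on 4× images. Relative viability is the ratio of nuclei in treated wells to nuclei in vehicle wells, taken as the median of duplicate plates.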

IPA-3 + Decitabine = compound: C1=CC=C2C(=C1)C=CC(=C2SSC3=C(C=CC4=CC=CC=C43)O)O [IPA-3] + Nc1ncn([C@H]2C[C@H](O)[C@@H](CO)O2)c(=O)n1 [Decitabine] (partner 2 µM)
Outline: as §1

Doramapimod + Pictilisib = compound: Cc1ccc(-n2nc(C(C)(C)C)cc2NC(=O)Nc2ccc(OCCN3CCOCC3)c3ccccc23)cc1 [Doramapimod] + CS(=O)(=O)N1CCN(Cc2cc3nc(-c4cccc5[nH]ncc45)nc(N4CCOCC4)c3s2)CC1 [Pictilisib] (partner 1 µM)
Outline: as §1

RAF265 + Pictilisib = compound: Cn1c(Nc2ccc(C(F)(F)F)cc2)nc2cc(Oc3ccnc(-c4ncc(C(F)(F)F)[nH]4)c3)ccc21 [RAF265] + CS(=O)(=O)N1CCN(Cc2cc3nc(-c4cccc5[nH]ncc45)nc(N4CCOCC4)c3s2)CC1 [Pictilisib] (partner 1 µM)
Outline: as §1

Row | Cell Line | relative viability (IPA-3 + Pictilisib; first compound 0.2 µM) | relative viability (IPA-3 + Pictilisib; first compound 0.6325 µM) | relative viability (IPA-3 + Pictilisib; first compound 2 µM) | relative viability (IPA-3 + Pictilisib; first compound 6.325 µM) | relative viability (IPA-3 + Pictilisib; first compound 20 µM) | relative viability (IPA-3 + Decitabine; first compound 0.2 µM) | relative viability (IPA-3 + Decitabine; first compound 0.6325 µM) | relative viability (IPA-3 + Decitabine; first compound 2 µM) | relative viability (IPA-3 + Decitabine; first compound 6.325 µM) | relative viability (IPA-3 + Decitabine; first compound 20 µM) | relative viability (Doramapimod + Pictilisib; first compound 0.02 µM) | relative viability (Doramapimod + Pictilisib; first compound 0.06325 µM) | relative viability (Doramapimod + Pictilisib; first compound 0.2 µM) | relative viability (Doramapimod + Pictilisib; first compound 0.6325 µM) | relative viability (Doramapimod + Pictilisib; first compound 2 µM) | relative viability (RAF265 + Pictilisib; first compound 0.01 µM) | relative viability (RAF265 + Pictilisib; first compound 0.03162 µM) | relative viability (RAF265 + Pictilisib; first compound 0.1 µM) | relative viability (RAF265 + Pictilisib; first compound 0.3162 µM) | relative viability (RAF265 + Pictilisib; first compound 1 µM)
1 | SK-MES-1 | 0.415 | 0.357 | 0.321 | 0.34 | 0.403 | 0.455 | 0.394 | 0.423 | 0.296 | 0.31 | 0.405 | 0.282 | 0.304 | 0.291 | 0.269 | 0.311 | 0.301 | 0.218 | 0.214 | 0.141
2 | NCI-H2405 | 0.458 | 0.382 | 0.354 | 0.519 | 0.416 | 0.797 | 0.737 | 0.723 | 0.721 | 0.746 | 0.435 | 0.424 | 0.401 | 0.68 | 0.356 | 0.529 | 0.473 | 0.397 | 0.368 | 0.231
3 | NCI-H2023 | 0.275 | 0.243 | 0.248 | 0.301 | 0.258 | 0.233 | 0.225 | 0.209 | 0.216 | 0.2 | 0.25 | 0.195 | 0.195 | 0.152 | 0.213 | 0.243 | 0.212 | 0.272 | 0.152 | 0.214
4 | NCI-H838 | 0.533 | 0.455 | 0.451 | 0.463 | 0.337 | 0.579 | 0.444 | 0.456 | 0.398 | 0.443 | 0.415 | 0.485 | 0.439 | 0.552 | 0.467 | 0.53 | 0.444 | 0.397 | 0.362 | 0.342
5 | NCI-H661 | 0.409 | 0.458 | 0.472 | 0.547 | 0.418 | 0.664 | 0.548 | 0.528 | 0.543 | 0.528 | 0.483 | 0.405 | 0.381 | 0.452 | 0.377 | 0.438 | 0.498 | 0.383 | 0.288 | 0.283
6 | NCI-H1734 | 0.469 | 0.473 | 0.441 | 0.494 | 0.435 | 0.59 | 0.457 | 0.469 | 0.44 | 0.436 | 0.418 | 0.356 | 0.352 | 0.466 | 0.325 | 0.479 | 0.334 | 0.438 | 0.276 | 0.228
7 | NCI-H1650 | 0.811 | 0.391 | 0.569 | 0.551 | 0.736 | 0.44 | 0.396 | 0.386 | 0.349 | 0.374 | 0.537 | 0.629 | 0.724 | 0.329 | 0.474 | 0.642 | 0.528 | 0.755 | 0.348 | 0.583
8 | NCI-H596 | 0.41 | 0.412 | 0.409 | 0.401 | 0.45 | 1.09 | 0.984 | 1.06 | 0.963 | 1.08 | 0.417 | 0.381 | 0.407 | 0.429 | 0.355 | 0.417 | 0.338 | 0.372 | 0.381 | 0.274
9 | NCI-H1944 | 0.351 | 0.344 | 0.371 | 0.38 | 0.345 | 0.468 | 0.41 | 0.456 | 0.481 | 0.412 | 0.319 | 0.378 | 0.339 | 0.372 | 0.322 | 0.339 | 0.343 | 0.334 | 0.293 | 0.258
10 | LK-2 | 0.47 | 0.572 | 0.708 | 0.646 | 0.695 | 0.297 | 0.333 | 0.32 | 0.442 | 0.346 | 0.538 | 0.545 | 0.464 | 0.368 | 0.349 | 0.528 | 0.669 | 0.604 | 0.531 | 0.403
11 | HCC-15 | 0.853 | 0.783 | 0.724 | 0.776 | 0.841 | 0.754 | 0.572 | 0.612 | 0.61 | 0.629 | 0.728 | 0.684 | 0.8 | 0.359 | 0.689 | 0.805 | 0.625 | 0.645 | 0.49 | 0.333
12 | NCI-H727 | 0.583 | 0.229 | 0.456 | 0.513 | 0.402 | 0.783 | 0.916 | 0.71 | 0.867 | 0.997 | 0.213 | 0.5 | 0.408 | 0.321 | 0.411 | 0.546 | 0.302 | 0.325 | 0.252 | 0.22
13 | HOP-62 | 1.04 | 0.651 | 0.589 | 0.668 | 0.63 | 0.193 | 0.213 | 0.231 | 0.229 | 0.235 | 0.761 | 0.714 | 0.742 | 0.463 | 0.438 | 0.641 |  | 0.726 | 0.426 | 0.179
14 | NCI-H3122 | 0.612 | 0.566 | 0.559 | 0.697 | 0.594 | 0.517 | 0.467 | 0.362 | 0.459 | 0.474 | 0.578 | 0.548 | 0.586 | 0.694 | 0.65 | 0.586 | 0.831 | 0.575 | 0.452 | 0.301
15 | NCI-H1395 | 0.607 | 0.61 | 0.441 | 0.651 | 0.668 | 0.688 | 0.666 | 0.728 | 0.687 | 0.714 | 0.567 | 0.599 | 0.601 | 0.624 | 0.545 | 0.632 | 0.574 | 0.568 | 0.449 | 0.507
16 | NCI-H647 | 0.44 | 0.351 | 0.363 | 0.434 | 0.471 | 0.502 | 0.396 | 0.397 | 0.206 | 0.134 | 0.434 | 0.509 | 0.428 | 0.664 | 0.406 | 0.38 | 0.342 | 0.383 | 0.259 | 0.208
